Experimental data taken from the supplement of paper PMC11451515.

Key:
Assay in all cases: AUC of viability dose-response curve (% viability x log10 dose units); higher = less sensitive
Details in all cases: 48 h
SEM cells = tested on: SEM cells
Outline: (§1)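 Over 48 h at 37°C, leukemia cells in 1536-well plates (500 or 1000 cells/well), adapted to each medium, received library compounds in DMSO at 11 threefold doses from 47 μM to 0.79 nM. CellTiter-Glo One luminescence, normalised per plate to DMSO and cell-free wells, was fitted by a four-parameter log-logistic function of log10 dose. The area under the curve was then integrated by trapezoidal rule, after scaling curves above full viability and removing those that failed quality control.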

P12-Ichikawa = tested on: P12-Ichikawa
Outline: as §1

NOMO1 = tested on: NOMO1
Outline: as §1

[1] = RPMI 5 mM glucose + 10% dialyzed FBS

Row | SMILES | AUC of viability dose-response curve (SEM cells; HPLM + 10% dialyzed FBS) | AUC of viability dose-response curve (SEM cells; RPMI 5 mM glucose + 10% FBS) | AUC of viability dose-response curve (SEM cells; [1]) | AUC of viability dose-response curve (P12-Ichikawa; HPLM + 10% dialyzed FBS) | AUC of viability dose-response curve (P12-Ichikawa; RPMI 5 mM glucose + 10% FBS) | AUC of viability dose-response curve (P12-Ichikawa; [1]) | AUC of viability dose-response curve (NOMO1; HPLM + 10% dialyzed FBS) | AUC of viability dose-response curve (NOMO1; RPMI 5 mM glucose + 10% FBS) | AUC of viability dose-response curve (NOMO1; [1])
1 | CSC1=CC(=CC=C1)NC2=NC3=C(C=N2)/C=C(C(=O)N3C)/C4=C(Cl)C=CC=C4Cl | 417 | 455 | 407 | 476 | 469 | 464 | 467 | 467 | 460
2 | O=C(O)c1ccc2cc(-c3ccc(O)c(C45CC6CC(CC(C6)C4)C5)c3)ccc2c1 | 287 | 282 | 266 | 299 | 285 | 277 | 323 | 330 | 311
3 | COC[C@H](NC(=O)c1cnc(C)s1)C(=O)N[C@@H](COC)C(=O)N[C@@H](Cc1ccccc1)C(=O)[C@@]1(C)CO1 | 214 | 213 | 199 | 251 | 245 | 231 | 265 | 273 | 271
4 | Cc1cc(O)c2c3c4c(cc(O)c13)C(C)(C)C(=O)c1c(O)cc(O)c(c1-4)C2=O | 457 | 465 | 450 | 460 | 457 | 454 | 450 | 451 | 462
5 | CN1C(=O)\C(=C/C(=C1/NC2=C(F)C=C(I)C=C2)C(=O)NOCCO)C | 398 | 403 | 342 | 441 | 423 | 451 | 257 | 281 | 253
6 | CCOC(=O)Nc1ccc(NCc2ccc(F)cc2)cc1N | 459 | 467 | 470 | 452 | 464 | 451 | 424 | 448 | 445
7 | O=C1Nc2ccccc2/C1=C1\Nc2ccccc2C1=O | – | – | – | 459 | 467 | 471 | 448 | 447 | 442
8 | Cc1c[nH]c(/C=C2\C(=O)Nc3ccccc32)c1CCC(=O)O | – | – | – | 436 | 413 | 390 | 399 | 440 | 428
9 | O=C1c2c(O)cccc2[C@H]([C@@H]2O[C@H](CO)[C@@H](O)[C@H](O)[C@H]2O)c2cc(CO)cc(O)c21 | 449 | 431 | 441 | 467 | 467 | 465 | 455 | 404 | 431
10 | CC1SC/2=C(C(O)=O)/C(=O)C3=CC(=C(C=C3N12)N4CCN(CC4)C\C5=C(C)\OC(=O)O5)F (stereo not drawn) | 472 | 442 | 449 | 437 | 449 | 449 | 413 | 456 | 443
11 | Fc1cc(-c2cccc3ncc(-c4cnn(C5CCNCC5)c4)nc23)cc(F)c1CN1CCOCC1 | 379 | 378 | 385 | 407 | 423 | 412 | 378 | 409 | 412
12 | N[C@@H](C(=O)N[C@H]1[C@H]2SC\C(=C(/N2C1=O)C(O)=O)Cl)C3=CC=CC=C3 | 436 | 465 | 468 | 462 | 457 | 466 | 462 | 430 | 441
13 | Clc1cccc(-c2nnnn2Cc2cccnc2)c1Cl | 359 | 348 | 375 | 397 | 385 | 382 | 362 | 365 | 357
14 | NC1CCC(N[C@@H]2C[C@H]2c2ccccc2)CC1 (stereo partly drawn) | 409 | 444 | 441 | 463 | 461 | 467 | 450 | 456 | 450
15 | COc1ccc(/C=C\c2cc(OC)c(OC)c(OC)c2)cc1O | 85.1 | 50.9 | 70 | 48.7 | 57 | 71.5 | 197 | 126 | 155
16 | Cc1ccc(-n2nc(C(C)(C)C)cc2NC(=O)Nc2ccc(OCCN3CCOCC3)c3ccccc23)cc1 | 403 | 399 | 398 | 477 | 463 | 473 | 474 | 460 | 471
17 | CC(C)(C)OC(=O)CN(Cc1ccc(Cl)cc1)Cc1ccc([N+](=O)[O-])s1 | 449 | 454 | 436 | 456 | 443 | 429 | 441 | 436 | 464
18 | ClC1=CC=C(CCCOC/2=N/NC(=O)C(=C2NCC3=CN=CC=C3)/Br)C=C1 | 323 | 358 | 391 | 387 | 430 | 382 | 344 | 390 | 392
19 | CN(C)Cc1ccc(-c2nc3cccc4c3n2CCNC4=O)cc1 | 455 | 459 | 462 | 461 | 463 | 466 | 464 | 458 | 452
20 | CC(=O)N1CCN(c2ccc(OCc3nn(C)c(C)c3-c3cccc4c(CCCOc5cc(C)c(Cl)c(C)c5)c(C(=O)O)n(Cc5cccnc5)c34)cc2)CC1 | 453 | 413 | 441 | 461 | 459 | 467 | 469 | 471 | 457
21 | NC(=O)c1ccc(-c2nc(-c3ccc4c(c3)OCCO4)c(-c3ccccn3)[nH]2)cc1 | 451 | 462 | 416 | 470 | 459 | 473 | 449 | 460 | 473
22 | Nc1ccccc1NC(=O)c1ccc(CNc2nccc(-c3cccnc3)n2)cc1 | 312 | 306 | 304 | 355 | 349 | 352 | 351 | 364 | 353
23 | CN(C)CCOC(c1ccccc1)c1ccccc1 | 460 | 473 | 452 | 471 | 473 | 469 | 470 | 459 | 467

Row | SMILES | AUC of viability dose-response curve (SEM cells; HPLM + 10% dialyzed FBS) | AUC of viability dose-response curve (SEM cells; RPMI 5 mM glucose + 10% FBS) | AUC of viability dose-response curve (SEM cells; [1]) | AUC of viability dose-response curve (P12-Ichikawa; HPLM + 10% dialyzed FBS) | AUC of viability dose-response curve (P12-Ichikawa; RPMI 5 mM glucose + 10% FBS) | AUC of viability dose-response curve (P12-Ichikawa; [1]) | AUC of viability dose-response curve (NOMO1; HPLM + 10% dialyzed FBS) | AUC of viability dose-response curve (NOMO1; RPMI 5 mM glucose + 10% FBS) | AUC of viability dose-response curve (NOMO1; [1])
24 | COc1cc2nccc(Oc3ccc(NC(=O)C4(C(=O)Nc5ccc(F)cc5)CC4)cc3)c2cc1OC | – | – | – | 436 | 440 | 427 | 433 | 457 | 442
25 | COc1ccc(Cc2nccc3cc(OC)c(OC)cc23)cc1OC | 469 | 460 | 465 | 462 | 466 | 458 | 453 | 458 | 454
26 | COc1cc2nccc(Oc3ccc(NC(=O)Nc4cc(C)on4)c(Cl)c3)c2cc1OC | – | – | – | 458 | 453 | 455 | 471 | 449 | 467
27 | CC(C)(C)/[N+]([O-])=C/c1ccc([S+](=O)([O-])[O][Na])cc1[S+](=O)([O-])[O][Na] | 438 | 461 | 453 | 461 | 451 | 469 | 451 | 445 | 459
28 | CCOC(=O)C/1=C(C)/NC(=S)NC1C2=CC=CC(=C2)O (stereo not drawn) | 242 | 242 | 263 | 251 | 246 | 281 | 286 | 272 | 300
29 | CNC(=O)[C@H](Cc1ccccc1)NC(=O)[C@H](CC(C)C)[C@H](CSc1cccs1)C(=O)NO | 405 | 389 | 340 | 409 | 373 | 386 | 433 | 402 | 415
30 | O=C1\C=C(/OC2=C1C=CC=C2C3=CC=CC=C3)N4CCOCC4 | – | – | – | 432 | 393 | 397 | 410 | 392 | 390
31 | NC(=O)N1c2ccccc2CC(=O)c2ccccc21 | 466 | 427 | 389 | 461 | 456 | 464 | 408 | 444 | 466
32 | CO[C@H]1C[C@@H]2CC[C@@H](C)[C@@](O)(O2)C(=O)C(=O)N2CCCC[C@H]2C(=O)O[C@H]([C@H](C)C[C@@H]2CC[C@@H](OP(C)(C)=O)[C@H](OC)C2)CC(=O)[C@H](C)/C=C(\C)[C@@H](O)[C@@H](OC)C(=O)[C@H](C)C[C@H](C)/C=C/C=C/C=C/1C | 382 | 360 | 380 | 453 | 411 | 414 | 452 | 462 | 476
33 | CCC(=O)O[C@@]1([C@@H](C)C[C@H]2[C@@H]3CCC/4=C/C(=O)/C=C\[C@]4(C)[C@@]3(F)[C@@H](O)C[C@]12C)C(=O)CCl | 339 | 336 | 308 | 325 | 254 | 251 | 411 | 467 | 429
34 | CCNC(=O)C[C@@H]1\N=C(C2=CC=C(Cl)C=C2)/C3=C(C=CC(=C3)OC)[N]4C(=NN=C14)C | 311 | 299 | 303 | 395 | 396 | 388 | 373 | 392 | 388
35 | COc1nc(-c2ccc3c(c2)OCO3)n(-c2ccc(NC(=O)CSc3ccccc3)cc2)n1 | 457 | 443 | 453 | 470 | 454 | 428 | 440 | 449 | 455
36 | C[C@H]1CN(C[C@@H](C)O1)CC(=O)NC2=CC=C3SC4=C(CC3=C2)C=CC=C4\C5=C\C(=O)\C=C(/O5)N6CCOCC6 | – | – | – | – | – | – | 397 | 439 | 433
37 | C[C@@H]1C[C@H]2[C@@H]3\C=C(C)/C4=C/C5=C(C[C@]4(C)[C@H]3[C@@H](O)C[C@]2(C)[C@@]1(O)C(=O)COC(C)=O)C=N[N]5C6=CC=CC=C6 | 304 | 277 | 258 | 323 | 264 | 251 | 442 | 411 | 449
38 | C[C@@H](c1ncncc1F)[C@](O)(Cn1cncn1)c1ccc(F)cc1F | – | – | – | 464 | 436 | 450 | 462 | 448 | 446
39 | Fc1ccc(C(c2ccc(F)cc2)N2CCN(C/C=C/c3ccccc3)CC2)cc1 | 404 | 392 | 424 | 456 | 462 | 447 | 432 | 467 | 457
40 | CNC(=O)c1cccc(-c2ccc3c(N4CCOC[C@@H]4C)nc(N4CCOC[C@@H]4C)nc3n2)c1 | 305 | 333 | 305 | 370 | 316 | 322 | 343 | 376 | 323
41 | OC[C@H]1O[C@@H](Oc2ccc(O)cc2)[C@H](O)[C@@H](O)[C@@H]1O | 376 | 390 | 397 | 461 | 421 | 426 | 461 | 426 | 404
42 | O=[N+]([O-])c1cn2c(n1)OC[C@@H](OCc1ccc(OC(F)(F)F)cc1)C2 | 444 | 466 | 455 | 450 | 453 | 458 | 454 | 459 | 470
43 | C#Cc1cccc(Nc2ncnc3cc(OCCOC)c(OCCO)cc23)c1 | 431 | 400 | 417 | 451 | 453 | 451 | 372 | 455 | 455
44 | O=C/1\C=C(/OC(=C1)/C2=C3SC4=C(SC3=CC=C2)C=CC=C4)N5CCOCC5 | 417 | 409 | 411 | – | – | – | – | – | –
45 | COc1cc(N2CCC(O)CC2)ccc1Nc1cc(Nc2ccccc2[S+](=O)([O-])C(C)C)c2cc[nH]c2n1 | – | – | – | 411 | 392 | 400 | 331 | 414 | 404
46 | COc1cc2c(N3CCN(C(=O)Nc4ccc(OC(C)C)cc4)CC3)ncnc2cc1OCCCN1CCCCC1 | – | – | – | 406 | 360 | 369 | 395 | 357 | 371
